Assay: Particle size distribution by static light scattering, storage stability
Type: physicochemical
Conditions: 45 mm lens, tap-water
Procedure: Additionally, the particle size distribution of the original suspoemulsion was determined by static light scattering measurements using a 45 mm lens and tap-water. The stability of the undiluted suspoemulsion as measured by static light scattering measurements was followed over a period of 8 months. The results from the Turbiscan scan measurements were evaluated graphically. […] This implies that the diluted product stays stable under static conditions, like for example in the dosage tank of an automatic injection system.

particle size distribution at t = 0, (D[3, 2] in μm): 1.53 μm
SMILES: COC(=O)Nc1nc2cc(C(=O)c3ccc(F)cc3)ccc2[nH]1 [Fb powder, flubendazole]

From patent publication US9040571B2, “Veterinary formulation for administration of a water-insoluble drug to a target animal through a water distribution system” (Elanco Animal Health Ireland Limited, priority 1999, dated 2015)
